From patent publication US20120148695A1, “Pharmaceutical Compositions From Carapa Guianensis” (priority 2004, published 2012)
“Also recorded” adds a separate entry of the source.

Experiments:
[1] = system: edema of paw induced by PAF; experiment: edema of paw induced by platelet activation factor (PAF); format: in vivo, Swiss mice; conditions: WEB 2170 16 mg/Kg oral; PAF 1 μg/paw
Description: Swiss mice were stimulated through intraplant injection of 1 μg/paw of platelet activation factor (PAF) in one of the rear paws at the volume of 50 μL/paw. In the counter-lateral paw the same volume of vehicle injected (sterile saline free of pyrogens). The stimulus was performed in non-treated animals and animals pre-treated with 16 mg/Kg of antagonist to PAF WEB 2170 (p.o., 100 μL). Thirty minutes after the stimulus, the edema was analyzed by the digital plethysmograph, through the displacement of fluid (0.5 g NaCl; 3 mL Extran 100%/1 L) produced by insertion of each paw in the measurement tray. Each analysis was performed 3 times.

[2] = system: edema of paw induced by carrageenin; experiment: edema of paw induced by carrageenin; format: in vivo, Swiss mice; conditions: diclophenac 100 mg/Kg oral; carrageenin 300 μg/paw
Description: (§1) The animals were stimulated through intraplant injection of stimulus (zimosan or carrageenin) in one of rear paws with the volume of 50 μL/paw. Doses used were: 500 μg/paw of zimosan and 300 μg/paw of carrageenin. In the counter-lateral the same volume of vehicle was injected (sterile saline free of pyrogens). Four hours after the stimulus, the edema was analyzed at the digital plethysmograph, through of displacement of fluid (0.5 g NaCl; 3 mL Extran 100%/1 L) produced by insertion of each paw in the measurement tray. Each Analysis was performed 3 times.

[3] = system: edema of paw induced by zimosan; experiment: edema of paw induced by zimosan; format: in vivo, Swiss mice; conditions: diclophenac 100 mg/Kg oral; zimosan 500 μg/paw
Description: as §1

[4] = system: pleurisis induced by carrageenin; experiment: pleurisis induced by carrageenin; format: in vivo, Swiss mice; conditions: diclophenac 100 mg/Kg p.o.; 4 h
Description: Pleurisis was induced through intra-thoracic injection (i.t) of carrageenin (300 μg/cavity) at the final volume of 100 μL (Henriques and col., 1991). The control group received 100 μL of vehicle (sterile saline). Four hours after the stimulus, the animals were sacrificed in of CO2 chamber, their thoracic pleural were exposed and washed with phosphate tampon (PBS) heparinized (20 UI/mL). The pleural cavity of the animals was washed with the help of an automatic pipette, at the volume of 1 mL. The pleural wash was collected and centrifuged (740 g, 10 minutes) to remove cells for posterior evaluation of the proteic exudation, as described as follows. Mice were previously injected intravenously at their orbital plexus with Evans blue 1% (25 mg/Kg), and a proteic exudation was evaluated through of overflowing of Evans blue, through spectrophotometer at λ 600 nm. The concentration of Evans blue was determined comparing the optical density (D.O.) of washes with a pattern curve of Evans blue (of 25.6 a 0.2 μg/mL). Results were expressed as μg/mL of Evans blue. The count of the number of total leucocytes in the pleural wash was made with the help of a Neubauer chamber as of a quota removed from the pleural wash, diluted 40 times in Turk liquid for the lise of erythrocytes. […] Results are expressed as number of cells (×10^6) by cavity.

[5] = system: hyperalgesia induced by carrageenin; experiment: hyperalgesia induced by carrageenin (hot plate); format: in vivo, Wistar rats; conditions: dipyrone 100 mg/Kg p.o.
Description: (§2) The […] activity was evaluated through an essay of hyperalgesia, performed in a heated plate (Hot Plate, Ugo Basile-Italia model DS-37), with male Wistar rats. The essay is performed through placement of the animals on the hot plate, limited by an acrylic dome of approximately 18 cm in diameter by 40 cm in height.
The induction of hyperalgesic state was performed through the intraplant injection of 800 μg/paw of carrageenin in Wistar rats in one of the rear paws, at the final volume of 100 μL/paw. In the counter-lateral paw the same volume of vehicle (sterile saline free of pyrogens) was injected. The stimulus was performed in animals non-treated and in animals pre-treated with dipyrone (100 mg/Kg, p.o.). Three hours after the stimulus, the animals were placed in a hot plate at 52.5±0.5° C., and two chronometers are set to record the latency of response of withdrawal of each rear paw. Results were expressed in terms of variation of latency of withdrawal of left and right side paws, measured in seconds.

[6] = system: edema of paw induced by egg albumin in sensitized mice; experiment: allergic edema of paw induced by egg albumin, oral pre-treatment; format: in vivo, Swiss mice; conditions: promethazine 30 mg/Kg oral, 1 h before, egg albumin 3 μg/paw
Description: This essay was made in animals previously sensitized through an subcutaneous injection (s.c.) in the dorsal region with 200 μL of a suspension containing 50 μg of egg albumin+5 mg (Al(OH)3) diluted in sterile saline free or pyrogens (200 μL/animal). The edema of paw was induced by an intraplant paw injection of egg albumin (3 μg/paw, no final volume of 50 μL) in one of the back paws, fourteen days after sensitization. The counter-lateral paw received an injection with the same volume of the vehicle (solution saline). The edema was analyzes in a digital plethysmograph, through the displacement of fluid (0.5 g NaCl; 3 mL Extran 100%/1 L) produced by the insertion of the paw in test in the measurement tray. Each analysis was performed 3 times. […]
For evaluation of the anti-allergenic activity of the oil of Carapa guianensis, the dosages of 200 and 400 mg/Kg were tested for mice and 150 and 300 mg/Kg for rats, depending on the model tested. […] The results were expressed as mean and pattern error of the mean and (AND.P.M.), and statistically analyzed through the analysis of the variance (ANOVA), followed by test of multiple comparisons of Newman-Kewls, or T of Student test with a level of significance minor or equal to 0.05 (p≦0.05).

[7] = system: edema of paw induced by histamine; experiment: edema of paw induced by histamine, oral pre-treatment; format: in vivo, Swiss mice; conditions: mice; promethazine 30 mg/Kg p.o.
Description: The animals were stimulated through interplant injection of stimulus (histamine, bradikinin and PAF—platelet-activating factor) in one of the rear paws with volumes of 50 or 100 μL/paw for mice or rats, respectively. The dosages used were: 100 μg/paw of histamine, 10 nmol/paw of bradykinin and 1 μg/paw of PAF (we notice that only bradykinin was injected in a volume of 50 μL). On the counter-lateral side of the paw the same volume of the vehicle (saline sterile free of pyrogen). Thirty minutes or one hour after the stimulus, the edema was analyzed at the digital plethysmograph, through of displacement of fluid (0.5 g NaCl; 3 mL Extran 100%/1 L) produced by the insertion of each paw in the measurement tray. Each analysis was performed 3 times.
(§3) The treatments with oil or tetranortriterpenoids were performed orally (p.o) 1 hour before the stimulation in conscious animals, kept in a previous fasting of 12 hours with free access to water. The treatment solutions were administered with the help of a curve needle with spherical end, with volumes of 200 μL or 400 μL for mice (of 25 g) or rats (of 200 g). The doses used were 200 or 400 mg/Kg for mice and 150 or 300 mg/Kg for rats. The tetranortriterpenoids were administered in doses of 12.5; 25; 50; 100 and 200 mg/Kg. […]

[8] = system: ear edema induced by histamine; experiment: edema of ear induced by histamine (Evans blue); format: in vivo, mice; conditions: promethazine 10 mg/Kg p.o.; 30 minutes
Description: The ear edema was induced in anesthetized mice (pentobarbital 40 mg/kg, via intravenous, i.v.) with an intravenous injection (i.v.) in the orbital plexus of Evans blue 1% (25 mg/Kg), 24 hours before the stimulus. […] Thirty minutes after the stimulus, the animals were sacrificed in the chamber of CO2, and their ears were removed and placed in formamide (500 μL/ear) for 24 hours for the extraction of Evans blue. The concentration of Evans blue in the supernatant was analyzed through spectrophotometer (SpectraMax®) at λ 600 nm. The concentration of Evans blue is determined comparing the optical density é (D.O.) of a pattern curve (from 25.6 to 0.2 μg/mL).
as §3

[9] = system: pleural exudation induced by histamine; experiment: pleurisy induced by histamine, pleural exudation (Evans blue); format: in vivo, Swiss mice; conditions: promethazine 30 mg/Kg p.o.; histamine 100 μg/cavity
Description: The pleurisy was induced through intra-thoracic injection (i.t) of histamine (100 μg/cavity) at the final volume of 100 μL. The control group received 100 μL of vehicle (sterile saline). One hour after the stimulus, the animals were sacrificed in a chamber CO2, their thoracic cavities were exposed and washed with phosphate tampon (PBS) heparinized (20 UI/mL). The pleural cavity of the animals was washed with the help of an automatic pipette, with volumes of 1 and 3 mL for mice and rats, respectively. The pleural wash was collected and centrifuged (740 g, 10 minutes) to remove the cells for posterior evaluation of the proteic exudation, as described as follows. In experiences made with mice, they were previously intravenously injected with Evans blue 1% (25 mg/Kg), at the orbital plexus and the proteic exudation was evaluated through overflow of Evans blue, through spectrophotometer at λ 600 nm. The concentration of Evans blue was determined comparing the optical density (D.O.) of washes with a pattern curve of Evans blue (of 25.6 a 0.2 μg/mL). Results were expressed as μg/mL of Evans blue. For analysis in rats, the exudation of pleural wash was evaluated by the measure of the volume collected from the cavity with the help of a graded syringe and the overflow of proteins was evaluated by the quantification of proteins at the supernatant by the method of Lowry (Lowry et al., 1951). […]

[10] = system: hyperalgesia induced by histamine; experiment: hyperalgesia induced by histamine (hot plate); format: in vivo, Wistar rats; conditions: promethazine 30 mg/Kg p.o.
Description: as §2
The induction of a hyperalgesic state was performed through intraplant injection of 100 μg/paw of histamine in Wistar rats in one of the rear paws, at the final volume of 100 μL/paw. In the counter-lateral paw the same volume of vehicle (sterile saline free of pyrogens) was injected. The stimulus was performed in animals non-treated and in animals pre-treated with promethazine (30 mg/Kg, p.o.). Thirty minutes after the stimulus, the animals were placed in a hot plate at 52.5±0.5° C., and two chronometers are set to record the latency of response of withdrawal of each rear paw. Results were expressed in terms of variation of latency of withdrawal of left and right side paws, measured in seconds.
The induction of a hyperalgesic state was performed through intraplant injection of 100 μg/paw of histamine in Wistar rats in one of the rear paws, at a final volume of 100 μL/paw. […] Results were expressed in terms of variation of latency of withdrawal of left and right side paws, measured in seconds.

[11] = system: edema of paw induced by bradykinin; experiment: edema of paw induced by bradykinin; format: in vivo, Wistar rats; conditions: HOE 140 10 nmol/paw intraplant
Description: Wistar rats were stimulated through intraplant injection of 10 nmol/paw of bradykinin (BK) in one of the rear paws at the volume of 50 μL/paw (Henriques, 1991). In the counter-lateral paw was injected the same volume of vehicle (sterile saline free of pyrogens). The stimulus was performed in non-treated animals and in animals pre-treated through of an intraplant injection of 10 nmol/paw of antagonist to bradykinin HOE 140 at the volume of 50 μL. Thirty minutes after the stimulus, the edema was analyzed on the digital plethysmograph, through the displacement of fluid (0.5 g NaCl; 3 mL Extran 100%/1 L) produced by insertion of each paw in the measurement tray. Each analysis was performed 3 times.

Molecule: Cc1nnc2n1-c1sc3c(c1C(c1ccccc1Cl)=NC2)CC(C(=O)N1CCOCC1)C3 (centres unmarked) [WEB 2170]
- edema of paw induced by PAF [1]: inhibition of edema

Molecule: O=C([O-])Cc1ccccc1Nc1c(Cl)cccc1Cl.[K+] [diclophenac, diclophenac of potassium]
- edema of paw induced by carrageenin [2]: inhibition
- edema of paw induced by zimosan [3]: inhibition
- proteic overflow induced by carrageenin in pleural cavity [4]: able to significantly inhibit the proteic overflow induced by carrageenin

Molecule: Cc1c(N(C)CS(=O)(=O)[O-])c(=O)n(-c2ccccc2)n1C.[Na+] [dipyrone]
- hyperalgesia induced by carrageenin [5]: inhibition of hyperalgesia

Molecule: CC(CN1c2ccccc2Sc2ccccc21)N(C)C (centres unmarked) [promethazine]
- allergic edema of paw induced by egg albumin [6]: significantly inhibited; also recorded: inhibition of edema
- edema of paw induced by histamine [7]: inhibited
- ear edema induced by histamine [8]: able to significantly inhibit the edema induced by histamine
- proteic overflow in pleurisis induced by histamine [9]: able to significantly inhibit the proteic overflow induced by histamine
- hyperalgesia induced by histamine [10]: inhibition of hyperalgesia

Molecule: HOE 140
- edema of paw induced by bradykinin [11]: inhibition of edema
